Laboratory results from patent US12410160B2 (Gilead Sciences, Inc., priority 2021, dated 2025).
Like-named read-outs stand apart in the source and are kept apart here.

Legend:
[1] = target: KHK-C expressed in NRK-52E cells (Homo sapiens (Human), UniProt P50053); assay: KHK-C Cell-based Assay (EC50), NRK CTG, fructose-mediated ATP-depletion
[2] = target: human KHK-C (Homo sapiens (Human), UniProt P50053); assay: KHK Biochemical Assay (IC50), ADP-Glo, KHK-C; settings: average of at least two separate assays
Sequence of human KHK-C (P50053 whole entry): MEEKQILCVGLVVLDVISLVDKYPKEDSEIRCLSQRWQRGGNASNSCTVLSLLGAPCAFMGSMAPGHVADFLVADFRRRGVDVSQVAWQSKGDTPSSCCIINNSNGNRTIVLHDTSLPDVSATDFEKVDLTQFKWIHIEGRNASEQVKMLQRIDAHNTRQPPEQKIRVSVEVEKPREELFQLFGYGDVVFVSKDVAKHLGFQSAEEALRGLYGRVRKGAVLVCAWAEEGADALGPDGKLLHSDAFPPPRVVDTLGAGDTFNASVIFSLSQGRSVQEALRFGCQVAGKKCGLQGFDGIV
How it was run: (§1)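 ADP-Glo luminescence measured ADP made over a 4 h room-temperature reaction of ATP plus fructose, started after 30 min compound–enzyme pre-incubation. Buffer: 50 mM Hepes pH 7.4, 140 mM KCl, 5 mM MgCl2, 0.01% Triton-X. Enzyme was His-tagged, BL21 (DE3)-expressed, Ni-NTA-purified; compounds in 1:3 DMSO dilution series.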

[3] = target: human KHK-A (Homo sapiens (Human), UniProt P50053); assay: KHK Biochemical Assay (IC50), ADP-Glo, KHK-A; settings: average of at least two separate assays
Sequence of human KHK-A (P50053 other isoform, or with tags, fused parts or gaps): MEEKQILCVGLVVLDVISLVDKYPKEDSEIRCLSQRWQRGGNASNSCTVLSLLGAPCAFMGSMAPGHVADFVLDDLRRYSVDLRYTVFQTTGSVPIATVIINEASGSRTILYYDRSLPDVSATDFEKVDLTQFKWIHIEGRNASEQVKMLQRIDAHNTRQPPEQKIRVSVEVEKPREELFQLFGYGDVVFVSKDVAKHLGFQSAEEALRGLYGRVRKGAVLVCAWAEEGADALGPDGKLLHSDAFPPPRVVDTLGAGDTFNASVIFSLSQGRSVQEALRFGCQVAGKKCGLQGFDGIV
How it was run: as §1

[4] = tested on: HepG2 cells; assay: F1P Cell-Based Assay (EC50), 13C6-fructose-1-phosphate in HepG2 cells (cell culture medium or 50% human plasma)
[5] = HepG2 cells, 50% human plasma, read-out: F1P 50% HP EC50
[6] = read-out: F1P 10% FBS EC50, HepG2 cells, cell culture medium (10% FBS)
[7] = Homo sapiens, HepG2, HepG2 cells, 50% human plasma, read-out: F1P 50% HP EC50
[8] = Homo sapiens, HepG2, read-out: F1P 10% FBS EC50, HepG2 cells, cell culture medium (10% FBS)

Sequence of KHK-C expressed in NRK-52E cells (P50053 whole entry): as the sequence (P50053 whole entry) above

SMILES	IC50 [2] [nM]	EC50 [4, 7] [nM]	EC50 [4, 8] [nM]	IC50 ([2]; ADP-Glo) [nM]	further results
C[C@H]1[C@H](CO)CN1c1nc2c(c(-c3ccc(C(N)=O)cc3)n1)CCC2 (racemic) [Example 267, (rac)-4-(2-((2S*,3R*)-3-(hydroxymethyl)-2-methylazetidin-1-yl)-6,7-dihydro-5H-cyclopenta[d]pyrimidin-4-yl)benzamide]	–	–	–	–	EC50 [1]: > 5000 nM
C[C@H]1[C@H](F)CN1c1nc(-c2ccc([C@H](N)CS(C)(=O)=O)cc2)c2c(n1)C(F)(F)CC2 (single isomer, unassigned) [Example 788]	2.5	–	–	–	IC50 [3]: 6 nM; EC50 [4, 5]: 76.5 nM; EC50 [4, 6]: 18.6 nM
C[C@H]1[C@@H](F)CN1c1nc(-c2ccc(C3(N)COC3)cc2)c2c(n1)C(F)(F)CC2 (stereo in doubt) [Example 469, 3-(4-(7,7-difluoro-2-((28,38)-3-fluoro-2-methylazetidin-1-yl)-6,7-dihydro-5H-cyclopenta[d]pyrimidin-4-yl)phenyl)oxetan-3-amine]	2.5	22.5	10.7	–	IC50 [3]: 6.7 nM
C[C@H]1[C@H](F)CN1c1nc2c(c(-c3ccc4c(c3)C(=O)N(C)C4)n1)CCC2 [Example 203, 6-[2-[(2S,3R)-3-fluoro-2-methyl-azetidin-1-yl]-6,7-dihydro-5H-cyclopenta[d]pyrimidin-4-yl]-2-methyl-isoindolin-1-one]	–	–	–	–	EC50 [1]: 59.5 nM
C[C@H]1CCN1c1nc2c(c(-c3ccc4c(c3)C(=O)N(C)C4)n1)CCC2 [Example 206, 2-methyl-6-[2-[(2S)-2-methylazetidin-1-yl]-6,7-dihydro-5H-cyclopenta[d]pyrimidin-4-yl]isoindolin-1-one]	–	–	–	–	EC50 [1]: 26.6 nM
C[C@H]1CCN1c1nc(-c2cccc(C(N)=O)c2)c2c(n1)C1CC1C2 (stereo partly drawn) [Example 272, 3-(2-((S)-2-methylazetidin-1-yl)-5,5a,6,6a-tetrahydrocyclopropa[4,5]cyclopenta[1,2-d]pyrimidin-4-yl)benzamide]	–	–	–	–	EC50 [1]: 635 nM
C[C@H]1[C@H](O)CN1c1nc(-c2ccc3c(c2)CC[C@]32NC(=O)NC2=O)c2c(n1)C(F)(F)CC2 [Example 486, (S)-5′-(7,7-difluoro-2-((2S,3R)-3-hydroxy-2-methylazetidin-1-yl)-6,7-dihydro-5H-cyclopenta[d]pyrimidin-4-yl)-2′,3′-dihydrospiro[imidazolidine-4,1′-indene]-2,5-dione]	0.2	8.3	6	–	IC50 [3]: 1.7 nM
CS(=O)(=O)CC(N)c1ccc(-c2nc(N3CC[C@@H]3CF)nc3c2CCC3(F)F)cc1 (stereo partly drawn) [Example 780, 1-(4-(7,7-difluoro-2-((R)-2-(fluoromethyl)azetidin-1-yl)-6,7-dihydro-5H-cyclopenta[d]pyrimidin-4-yl)phenyl)-2-(methylsulfonyl)ethan-1-amine]	4.8	35	22.8	–	–
NC1(c2ccc(-c3nc(N4CC(F)(F)C4CO)nc4c3CCC4(F)F)cc2)CS(=O)(=O)C1 (stereo not drawn) [Example 782, 3-amino-3-(4-(2-(3,3-difluoro-2-(hydroxymethyl)azetidin-1-yl)-7,7-difluoro-6,7-dihydro-5H-cyclopenta[d]pyrimidin-4-yl)phenyl)thietane 1,1-dioxide]	6.3	130	135	–	–
C[C@H]1[C@@H](F)CN1c1nc(-c2ccc(C3(N)CS(=O)(=O)C3)cc2)c2c(n1)C(F)(F)CC2 [Example 785]	0.7	23.7	15.2	–	–
C[C@H]1CCN1c1nc(-c2cccc(C3(N)CS(=O)(=O)C3)c2)c2c(n1)C(F)(F)CC2 [Example 790, (S)-3-amino-3-(3-(7,7-difluoro-2-(2-methylazetidin-1-yl)-6,7-dihydro-5H-cyclopenta[d]pyrimidin-4-yl)phenyl)thietane 1,1-dioxide]	14.2	104	29	–	–
N#CCC1CCN1c1nc(-c2ccc3c(c2)S(=O)(=O)CCNC3)c2c(n1)C(F)(F)CC2 (stereo not drawn) [Example 791, 2-(1-(4-(1,1-dioxido-2,3,4,5-tetrahydrobenzo[f][1,4]thiazepin-8-yl)-7,7-difluoro-6,7-dihydro-5H-cyclopenta[d]pyrimidin-2-yl)azetidin-2-yl)acetonitrile]	80.5	> 500	316	–	–
C[C@H]1[C@H](O)CN1c1nc(-c2ccc(C3(N)CCS(=O)(=O)C3)cc2)c2c(n1)C(F)(F)CC2 (stereo partly drawn) [Example 793]	–	75.5	55.6	4.8	–
C[C@H]1[C@H](O)CN1c1nc(-c2ccc3c(c2)C(F)(F)CNC3)c2c(n1)C(F)(F)CC2 [Example 807, (2S,3R)-1-[4-(4,4-difluoro-2,3-dihydro-1H-isoquinolin-6-yl)-7,7-difluoro-5,6-dihydrocyclopenta[d]pyrimidin-2-yl]-2-methyl-azetidin-3-ol]	–	99.4	35.2	15.7	–
C[C@H]1CCN1c1nc(-c2ccc3c(c2)CCNC3C(F)F)c2c(n1)C(F)(F)CC2 (stereo partly drawn) [Example 836, 6-(7,7-difluoro-2-((S)-2-methylazetidin-1-yl)-6,7-dihydro-5H-cyclopenta[d]pyrimidin-4-yl)-1-(difluoromethyl)-1,2,3,4-tetrahydroisoquinoline]	–	158	16.9	5.8	–

The next lines start with results.

IC50 [2] [nM]	EC50 [4, 7] [nM]	EC50 [4, 8] [nM]	IC50 ([2]; ADP-Glo) [nM]	SMILES	further results
1	–	–	–	COc1ccc(-c2nc(N3C[C@@H](O)[C@@H]3C)nc3c2CCC3(F)F)cc1[S@@](=N)(=O)C1CC1 (single isomer, unassigned) [Example 539]	IC50 [3]: 0.4 nM; EC50 [4, 5]: 8.9 nM; EC50 [4, 6]: 2 nM
1.1	27.5	14.9	–	C[C@H]1[C@H](O)CN1c1nc(-c2ccc3c(c2)OCC[C@@H]3NS(C)(=O)=O)c2c(n1)C(F)(F)CC2 (single isomer, unassigned) [Example 787]	IC50 [3]: 7 nM
–	78.4	25.2	2.5	C[C@H]1[C@H](O)CN1c1nc(-c2cc(F)c3c(c2)OC[C@@H]3NS(C)(=O)=O)c2c(n1)C(F)(F)CC2 (single isomer, unassigned) [Example 813]	IC50 ([3]; ADP-Glo): 34.7 nM
1.8	86.6	32.5	–	C[C@H]1[C@H](O)CN1c1nc(-c2cc(F)c3c(c2)CCC3NS(C)(=O)=O)c2c(n1)C(F)(F)CC2 (stereo partly drawn) [Example 525, N-(5-(7,7-difluoro-2-((2S,3R)-3-hydroxy-2-methylazetidin-1-yl)-6,7-dihydro-5H-cyclopenta[d]pyrimidin-4-yl)-7-fluoro-2,3-dihydro-1H-inden-1-yl)methanesulfonamide]	IC50 [3]: 29.8 nM
1	24.7	2.4	–	CS(=O)(=O)N[C@H]1COc2cc(-c3nc(N4CC[C@@H]4C(F)F)nc4c3CCC4(F)F)ccc21 [Example 545, N—((R)-6-(2-((R)-2-(difluoromethyl)azetidin-1-yl)-7,7-difluoro-6,7-dihydro-5H-cyclopenta[d]pyrimidin-4-yl)-2,3-dihydrobenzofuran-3-yl)methanesulfonamide]	IC50 [3]: 4 nM
6.1	–	–	–	C[C@H]1[C@H](O)CN1c1nc([C@H]2CC(NS(C)(=O)=O)c3ccccc3O2)c2c(n1)C(F)(F)CC2 (stereo partly drawn) [Example 786, N—((R)-(7,7-difluoro-2-((2S,3R)-3-hydroxy-2-methylazetidin-1-yl)-6,7-dihydro-5H-cyclopenta[d]pyrimidin-4-yl)chroman-4-yl)methanesulfonamide]	EC50 [4, 5]: 97.6 nM; EC50 [4, 6]: 58 nM
2.2	140	57.7	–	CS(=O)(=O)N[C@H]1COc2cc(-c3nc(N4CC(F)(F)C4CO)nc4c3CCC4(F)F)ccc21 (stereo partly drawn) [Example 792, N-((3R)-6-(2-(3,3-difluoro-2-(hydroxymethyl)azetidin-1-yl)-7,7-difluoro-6,7-dihydro-5H-cyclopenta[d]pyrimidin-4-yl)-2,3-dihydrobenzofuran-3-yl)methanesulfonamide]	–
–	179	110	24.8	CC(=O)NC1COc2cc(-c3nc(N4C[C@@H](O)[C@@H]4C)nc4c3CCC4(F)F)cc(F)c21 (stereo partly drawn) [Example 809]	–
–	> 500	206	34.9	C[C@H]1[C@H](O)CN1c1nc(-c2ccc3c(c2)CCC3(C)NS(C)(=O)=O)c2c(n1)C(F)(F)CC2 (stereo partly drawn) [Example 810, N-[5-[7,7-difluoro-2-[(2S,3R)-3-hydroxy-2-methyl-azetidin-1-yl]-5,6-dihydrocyclopenta[d]pyrimidin-4-yl]-1-methyl-indan-1-yl]methanesulfonamide]	–
–	343	127	5.2	COC(=O)NC1COc2cc(-c3nc(N4C[C@@H](O)[C@@H]4C)nc4c3CCC4(F)F)cc(F)c21 (stereo partly drawn) [Example 811, methyl (6-(7,7-difluoro-2-((2S,3R)-3-hydroxy-2-methylazetidin-1-yl)-6,7-dihydro-5H-cyclopenta[d]pyrimidin-4-yl)-4-fluoro-2,3-dihydrobenzofuran-3-yl)carbamate]	–
–	67.1	39.7	5.9	C[C@H]1[C@H](O)CN1c1nc(-c2cc(F)c3c(c2)OCC3NS(C)(=O)=O)c2c(n1)C(F)(F)CC2 (stereo partly drawn) [Example 817, N-(6-(7,7-difluoro-2-((2S,3R)-3-hydroxy-2-methylazetidin-1-yl)-6,7-dihydro-5H-cyclopenta[d]pyrimidin-4-yl)-4-fluoro-2,3-dihydrobenzofuran-3-yl)methanesulfonamide]	–
